Test results from article PMC9481533, “Structure-based discovery of small molecules that disaggregate Alzheimer’s disease tissue derived tau fibrils in vitro” (Nature Communications, 2022).
Several values for one entry are separate records, joined by “and”; a condition that tells them apart may be missing. Equal entries are not always repeated.

Tests used:
Neuro2a cells = test: MTT cytotoxicity assay; type: cell-based; conditions: for MTT cell viability, compound alone, Fig. 3f: Neuro2a, final small molecule concentration 10 µM, 24 h, vehicle = 100% viable, individual replicates, 10 µM
Procedure: (§1) In all, 90 µL of Neuro2a cells were plated on clear 96 well plates (Falcon 353072) at 6000 cells per well and given 24 h to adhere to the plate. Subsequent treatment consisted of PHF samples that were co-incubated with or without 100 µM of small molecules for 48 h at 37 °C, with 10 µl applied per well for a final small molecule concentration of 10 µM. After another 24-h incubation at 37 °C, 20 µl of Thiazolyl Blue Tetrazolium Bromide MTT dye (Sigma; 5 mg/ml stock in DPBS) was added to each well and further incubated for 3.5 h at 37 °C. The assay was arrested by replacement of all media with 100% DMSO and transferred to a SpectraMax MF reader. Background 700 nm readings were subtracted from the absorbance readings at 570 nm. Cells treated with 100% DMSO were designated as 0% viable and those treated only with vehicle were designated as 100% viable. Other well readings were normalized to these values.

MTT cytotoxicity assay = type: cell-based; conditions: mouse, Neuro2a cells, Neuro2a; final small molecule concentration 10 µM; 24 h; vehicle = 100% viable; individual replicates; read-out: MTT cell viability, compound alone, Fig. 3f
Procedure: as §1

[1] = biological target: crude AD brain extracts (tau seeds) in HEK293T tau biosensor cells (Homo sapiens, UniProt P10636); test: Tau biosensor cell seeding assay, screen with crude AD brain extracts; type: cell-based; conditions: 10 μM inhibitor on cells, seeds pre-incubated 16–18 h at 4 °C, individual replicates (n=3), DMSO control 10734.9/12808.5/11145.3
crude AD brain extracts (tau seeds) in HEK293T tau biosensor cells, sequence (P10636 623-695 limits assumed): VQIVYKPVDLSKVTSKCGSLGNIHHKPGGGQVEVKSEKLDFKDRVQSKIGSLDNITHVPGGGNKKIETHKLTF
Excerpt: From the in silico screen, compounds were ranked and 46 were selected for further experimental validation based on the total binding energy of the ligand/fibril complex. The experimental assessment consisted of direct measures of fibril disassembly (Fig. 2d, e and Supplementary Table 3) and assessment of the seeding capability of the products of disassembled AD tau fibrils in a biosensor cell assay. Disaggregating molecules that produce active seeds are undesirable for therapy and are excluded from further study. HEK293T cells expressing CFP- or YFP-fused tau are transduced with exogenous AD tau fibrils. Externally applied AD-tau fibrils then induce the aggregation of the endogenous fluorescent tau, resulting in the formation of FRET-positive intracellular aggregates, visible as bright puncta by fluorescence microscopy (Fig. 2f). Automated image analysis of visible puncta provides an objective quantification of seeded aggregation. […] Although biosensors may be limited in reporting structural characteristics of fibril progeny, they offer exquisitely sensitive measures of tau seeding activity—the ability for fibrils to recruit monomeric protein into fibrillar form, which is thought to be the mechanism for tau spreading in AD.
(§2) Human autopsy samples were obtained by the Mayo Clinic Brain Bank and UCLA Pathology Department according to HHS regulations from patients consenting to autopsy. Samples were provided to the researchers of this study as anonymized tissues. For purification of paired helical filaments (PHFs) and straight filaments (SFs) from AD brain tissue, extractions were performed according to the previously published protocol without any modifications. […] For biosensor seeding assays with crude AD brain extracts, fresh-frozen tissue from neuropathologically confirmed AD cases was thawed and cut into a 0.2–0.3 g sections. Tissue was manually homogenized in a 15 ml disposable tube in 1 ml of 50 mM Tris, pH 7.4 with 150 mM NaCl, and then aliquoted to PCR tubes and sonicated in a cuphorn bath for 120 min under 30% power at 4 °C in a recirculating ice water bath, according to reference.
(§3) HEK293T cell lines stably expressing tau-K18 P301S-eYFP were obtained from Marc Diamond[25] and used without further characterization or authentication. […] Inhibitors were dissolved in DMSO. […] After twenty minutes, 10 µl of fibrils were added to 90 µl of tau biosensor cells. The number of seeded aggregates was determined by imaging the entire well of a 96-well plate in triplicate using a Celigo Image Cytometer (Nexcelom) in the YFP channel. The number of aggregates in a given image was determined using an ImageJ 2.3.0[50] script, which subtracts the background fluorescence from unseeded cells, and then counts the number of aggregates as peaks with fluorescence above the background using the built-in Particle Analyzer. The number of aggregates was normalized to the confluence of each well, and dose-response plots were generated by calculating the average and standard deviations from triplicate measurements.

[2] = biological target: T1, AD brain-derived tau fibrils (Homo sapiens, UniProt P10636); test: Western blot of insoluble tau after compound treatment; type: biochemical; conditions: 72 h at 37 °C
T1 sequence (P10636 623-695 limits assumed): as above
Procedure: Proteins were transferred from gel to nitrocellulose membrane using an iBLOT2 system. The membrane was blocked for 1 h in TBST with 5% milk and washed with TBST three times. The membrane was then incubated with primary antibody (anti-tau A0024 (Dako), 1:4000 dilution in 2% milk/TBST solution) for 1 h, washed three times with TBST, incubated with horseradish peroxidase-conjugated secondary antibody (goat anti-mouse IgG H and L (HRP); 1:5000 Dilution in 2% milk/TBST), and washed three times in TBST.

[3] = biological target: brain-purified AD-tau fibrils in HEK293T tau biosensor cells (Homo sapiens, UniProt P10636); test: Tau biosensor cell seeding assay, dose-dependent inhibition with brain-purified AD-tau fibrils; type: cell-based; conditions: for Number of seeded aggregates, Supp. Fig. 7: individual replicates
brain-purified AD-tau fibrils in HEK293T tau biosensor cells, sequence (P10636 623-695 limits assumed): as above
Procedure: as §2, §3

[4] = biological target: T1, AD brain-derived tau fibrils; test: Negative stain EM and quantitative EM (qEM) of tau fibrils after compound treatment; type: biochemical
Procedure: Negatively stained EM Grids were prepared by depositing 6 µl of sample on formvar/carbon-coated copper grids (400 mesh) for 3 min. The sample was rapidly wicked using filter paper without drying the grid and stained with 1% uranyl acetate for 2 min. […] Fibrils were counted from collections of 33 micrographs (in triplicate) for each experimental condition.

[5] = inhibitor concentration 10 (µM)
[6] = inhibitor concentration 40 (µM)

Cc1cc(C)cc(N2C(=O)N(c3cccc(Cl)c3)C3CS(=O)(=O)CC32)c1 (centres unmarked) [CNS-12, 1-(3-chlorophenyl)-3-(3,5-dimethylphenyl)tetrahydro-1H-thieno[3,4-d]imidazol-2(3H)-one 5,5-dioxide]
MTT cell viability, compound alone, Fig. 3f (Neuro2a cells): 107.797% and 97.7194% and 77.9839%

Cc1cc(C)c(NC(=O)Cn2nc3c4c(cccc4c2=O)-c2ccccc2-3)c(C)c1 [CNS-11, N-mesityl-2-(3-oxoindeno[1,2,3-de]phthalazin-2(3H)-yl)acetamide]
viability at 24 h, 10 µM (MTT cytotoxicity assay): 60.2% | Neuronal cytotoxicity of compound (Neuro2a cells; Neuro 2a (N2a) cells, MTT): significant cytotoxicity | MTT cell viability, compound alone, Fig. 3f (Neuro2a cells): 62.1272% and 57.0691%

COc1ccccc1NC(=O)c1cc2c(ccc3ccccc32)oc1=O [CNS-25, N-(2-methoxyphenyl)-3-oxo-3H-benzo[f]chromene-2-carboxamide]
Number of seeded aggregates in tau biosensor cells (normalized to confluence), Fig. 2e ([1]; listed as 5876327): 13235.2 and 9679.79 and 19134.9

Cn1c(=O)n(C)c2cc3c(cc21)nc1c2cccc4cccc(c(=O)n31)c42 [CNS-1, 10,12-dimethyl-10,12-dihydro-7H,11H-benzo[de]imidazo[4',5':5,6]benzimidazo[2,1-a]isoquinoline-7,11-dione]
Number of seeded aggregates in tau biosensor cells (normalized to confluence), Fig. 2e ([1]; listed as 7850915): 11080.3 and 15413.1 and 17191

COc1ccc2c(c1)C(=O)N(CCc1ccc(S(=O)(=O)NC(=O)NC3CCCCC3)cc1)C(=O)C2(C)C [FDA-R-2, Gliquidone]
Number of seeded aggregates in tau biosensor cells (normalized to confluence), Fig. 2e [1]: 7523.16 and 6557.51 and 13245

O=C(Nc1cccc(C(F)(F)F)c1)N1c2ccccc2Sc2ccccc21 [CNS-17, N-[3-(trifluoromethyl)phenyl]-10H-phenothiazine-10-carboxamide]
Reduction of insoluble tau by Western blot [2]: reduction in insoluble tau species | viability at 24 h, 10 µM (MTT cytotoxicity assay): 74.1% | MTT cell viability, compound alone, Fig. 3f (Neuro2a cells): 66.6981% and 63.9984% | Number of seeded aggregates in tau biosensor cells (normalized to confluence), Fig. 2e ([1]; listed as 6870810): 4788.26 and 4837.93 and 6713.19 | IC50 ([3]; brain-purified AD-tau fibrils, read-out: IC50, inhibition of seeding efficiency in biosensor cells): < 5 µM | Number of seeded aggregates, Supp. Fig. 7 ([3]; inhibitor concentration 1 (µM)): 12634.1 and 17143.6 and 11095.2 | Number of seeded aggregates, Supp. Fig. 7 ([3]; inhibitor concentration 2 (µM)): 9200.81 and 9676.73 and 6081.22 | Number of seeded aggregates, Supp. Fig. 7 ([3]; inhibitor concentration 5 (µM)): 9500.56 and 10385 and 5182.56 | Number of seeded aggregates, Supp. Fig. 7 [3, 5]: 11886 and 11650.5 and 6860.55 | Number of seeded aggregates, Supp. Fig. 7 [3, 6]: 3439.45 and 1968.58 and 2178.79 | Fibril reduction by qEM [4]: a corresponding reduction in fibril density was not seen by qEM | Quantitation of fibril number on EM images (qEM), Fig. 3c ([4]; relative scale, fibrils alone about 1, individual replicates of 33 micrographs): 0.7296 and 1.4265 and 0.6447

Cc1nc2c([nH]1)-c1ccccc1N(C(=O)c1ccc(NC(=O)c3ccccc3-c3ccccc3)cc1)CC2 [FDA-A-16, Conivaptan]
Number of seeded aggregates in tau biosensor cells (normalized to confluence), Fig. 2e [1]: 15272 and 13297.5 and 27692

O=C(O)c1cc(=O)c2c(OCC(O)COc3cccc4oc(C(=O)O)cc(=O)c34)cccc2o1 [FDA-R-23, Sodium chromoglycate]
Number of seeded aggregates in tau biosensor cells (normalized to confluence), Fig. 2e ([1]; listed as cromolyn sodium): 8238.89 and 9556.51 and 14800.8

O=C(NC1CCN(CCCCC2(C(=O)NCC(F)(F)F)c3ccccc3-c3ccccc32)CC1)c1ccccc1-c1ccc(C(F)(F)F)cc1 [FDA-A2, Lomitipide]
Number of seeded aggregates in tau biosensor cells (normalized to confluence), Fig. 2e ([1]; listed as lomitapide): 1844.31 and 2433.57 and 2611.16 | Number of seeded aggregates, Supp. Fig. 7 ([3]; inhibitor concentration 1 (µM)): 9648.53 and 7383.58 and 7455.51 | Number of seeded aggregates, Supp. Fig. 7 ([3]; inhibitor concentration 2 (µM)): 5514.78 and 9418.9 and 7841.07 | Number of seeded aggregates, Supp. Fig. 7 ([3]; inhibitor concentration 5 (µM)): 11341.6 and 15697.2 and 9575.47 | Number of seeded aggregates, Supp. Fig. 7 [3, 5]: 4892.73 and 7401.62 and 3914.28 | Number of seeded aggregates, Supp. Fig. 7 [3, 6]: 2.016 and 15.6712 and 4.096

CN(C)S(=O)(=O)c1ccc2c(c1)/C(=C/c1cc3c([nH]1)CCCC3)C(=O)N2 [su6656]
Number of seeded aggregates in tau biosensor cells (normalized to confluence), Fig. 2e [1]: 5170.49 and 6311.14 and 10607

Oc1c(Cl)cc(Cl)c2cccnc12 [5,7-dichloro-8-quinolinol AKA Chloroxine, 5,7-dichloro-8-quinolinol]
Number of seeded aggregates in tau biosensor cells (normalized to confluence), Fig. 2e [1]: 8929.14 and 10028.6 and 22099.9

O=C1c2ccccc2C(=O)N1c1nc2nccc(-c3ccccc3)n2n1 [CNS-2, 2-(7-phenyl[1,2,4]triazolo[1,5-a]pyrimidin-2-yl)-1H-isoindole-1,3(2H)-dione]
viability at 24 h, 10 µM (MTT cytotoxicity assay): 97.5% | MTT cell viability, compound alone, Fig. 3f (Neuro2a cells): 89.5134% and 84.5916%

COc1cc([C@@H]2c3cc4c(cc3[C@@H](O[C@@H]3O[C@@H]5CO[C@@H](c6cccs6)O[C@H]5[C@H](O)[C@H]3O)[C@H]3COC(=O)[C@H]23)OCO4)cc(OC)c1O [FDA-A-11, Teniposide]
Number of seeded aggregates in tau biosensor cells (normalized to confluence), Fig. 2e [1]: 28315 and 23778 and 42223.8
